≈ marks a conversion by molar mass, not a printed value.
Columns and labels:
[1] = target: T1, C5a anaphylatoxin chemotactic receptor 1 (Homo sapiens) (UniProt P21730); experiment: Nonspecific degranulation of polymorho neutrophils as measured by myeloperoxidase (MPO) release in a whole functional cell assay
T1 sequence (whole entry): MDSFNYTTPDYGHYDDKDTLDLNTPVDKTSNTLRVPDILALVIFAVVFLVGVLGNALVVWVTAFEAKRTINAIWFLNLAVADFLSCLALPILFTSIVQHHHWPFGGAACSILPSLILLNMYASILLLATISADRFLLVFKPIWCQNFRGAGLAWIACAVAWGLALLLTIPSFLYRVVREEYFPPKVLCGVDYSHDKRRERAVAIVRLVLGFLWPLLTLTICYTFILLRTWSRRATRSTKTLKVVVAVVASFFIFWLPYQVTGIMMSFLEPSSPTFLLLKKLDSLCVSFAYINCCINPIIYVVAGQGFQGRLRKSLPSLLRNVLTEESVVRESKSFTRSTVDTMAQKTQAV

[2] = target: T1, C5a anaphylatoxin chemotactic receptor 1 (Homo sapiens); experiment: Inhibition of radiolabeled C5a binding to its membrane bound C5a anaphylatoxin chemotactic receptor
[3] = target: T2, C5a anaphylatoxin chemotactic receptor 1 (Homo sapiens, UniProt P21730); experiment: Inhibitory activity against radiolabeled C5a receptor on neutrophil membranes expressing C5a anaphylatoxin chemotactic receptor
T2 sequence (P21730 whole entry): T1 sequence (whole entry)

[4] = target: T1, C5a anaphylatoxin chemotactic receptor 1 (Homo sapiens); experiment: Compound was evaluated for inhibition of radiolabeled C5a binding to its membrane C5a anaphylatoxin chemotactic receptor
Homo sapiens = species on record: Homo sapiens; experiment: Degranulation of polymorho neutrophils as measured by myeloperoxidase (MPO) release in a whole functional cell assay
[5] = target: T2, C5a anaphylatoxin chemotactic receptor 1; experiment: Inhibitory activity against purified binding C5a anaphylatoxin chemotactic receptor
[6] = target: T2, C5a anaphylatoxin chemotactic receptor 1; experiment: Inhibitory activity for C5a anaphylatoxin chemotactic receptor binding using radiolabeled C5a receptor on neutrophil membranes (~2.0 uM)

SMILES	Concentration causing nonspecific degranulation (MPO release) [1] [µg/mL]	Activity [2] [µg/mL]	also measured
CC[C@H](C)C[C@H]1CC[C@](O)([C@](C)(O)C(=O)N[C@@H]2C(=O)N3NCCC[C@@H]3C(=O)N(O)[C@@H](C)C(=O)NCC(=O)N3NCCC[C@H]3C(=O)N(OC)[C@H](C)C(=O)O[C@H]2C(C)C)O[C@@H]1C	2	2	–
CC[C@@H](C)CC1CCC(O)([C@](C)(O)C(=O)NC2C(=O)N3NCCC[C@@H]3C(=O)N(O)[C@@H](C)C(=O)NCCC(=O)N3NCCC[C@H]3C(=O)N(O)[C@H](C)C(=O)O[C@H]2C(C)C)OC1C (stereo not given in full)	> 50	> 100	–
CCC(C)C[C@H]1CC[C@H]([C@](C)(O)C(=O)N[C@@H]2C(=O)N3NCCC[C@@H]3C(=O)N(O)[C@@H](C)C(=O)NCC(=O)N3NCCC[C@H]3C(=O)N(O)[C@H](C)C(=O)O[C@H]2C(C)C)O[C@@H]1C (single isomer, unassigned)	0.3	3.6	–
CC(O)C(=O)N[C@@H]1C(=O)N2NCCC[C@@H]2C(=O)N(O)[C@@H](C)C(=O)NCC(=O)N2NCCC[C@H]2C(=O)N(O)[C@H](C)C(=O)O[C@H]1C(C)C (stereo in doubt; 26)	> 20	> 100	–
CC(C)[C@@H]1OC(=O)[C@@H](C)N(O)C(=O)[C@@H]2CCCNN2C(=O)CNC(=O)[C@H](C)N(O)C(=O)[C@H]2CCCNN2C(=O)[C@H]1NC(=O)[C@](C)(O)CCCc1ccccc1	12	100	–
CC[C@H](C)C[C@H]1CC[C@](O)([C@](C)(O)C(=O)N[C@@H]2C(=O)N3NCCC[C@@H]3C(=O)N(C)[C@@H](C)C(=O)NCC(=O)N3NCCC[C@H]3C(=O)N(O)[C@H](C)C(=O)O[C@H]2C(C)C)O[C@@H]1C	2	5	–
CC[C@H](C)C[C@H]1CC[C@](O)([C@](C)(O)C(=O)N[C@@H]2C(=O)N3NCCC[C@@H]3C(=O)N(OCc3ccccc3)[C@@H](C)C(=O)NCC(=O)N3NCCC[C@H]3C(=O)N(O)[C@H](C)C(=O)O[C@H]2C(C)C)O[C@@H]1C	0.6	4	–
CC[C@H](C)C[C@H]1CC[C@](O)([C@](C)(O)C(=O)N[C@@H]2C(=O)N3NCCC[C@@H]3C(=O)N(OC)[C@@H](C)C(=O)NCC(=O)N3NCCC[C@H]3C(=O)N(OC)[C@H](C)C(=O)O[C@H]2C(C)C)O[C@@H]1C	3	6	–
CC[C@H](C)C[C@H]1CC[C@](O)([C@](C)(O)C(=O)N[C@@H]2C(=O)N3NCCC[C@@H]3C(=O)N(OC)[C@@H](C)C(=O)NCC(=O)N3NCCC[C@H]3C(=O)N(O)[C@H](C)C(=O)O[C@H]2C(C)C)O[C@@H]1C	0.3	5	–
CCC(C)C[C@H]1CC[C@](O)([C@](C)(O)C(=O)N[C@H]2COC(=O)[C@@H](C)NC(=O)[C@@H]3CCCNN3C(=O)CNC(=O)[C@H](C)N(O)C(=O)[C@H]3CCCNN3C2=O)O[C@@H]1C (single isomer, unassigned)	26	> 100	–
CC(O)C(=O)N[C@@H]1C(=O)N2NCCC[C@@H]2C(=O)N(O)[C@@H](C)C(=O)NCC(=O)N2NCCC[C@H]2C(=O)N(O)[C@H](C)C(=O)O[C@H]1C(C)C (stereo in doubt; 25)	23	23	–
CC[C@H](C)C[C@H]1CC[C@](O)([C@](C)(O)C(=O)N[C@@H]2C(=O)N3CCCC[C@@H]3C(=O)N(O)[C@@H](C)C(=O)NCC(=O)N3NCCC[C@H]3C(=O)N(O)[C@H](C)C(=O)O[C@H]2C(C)C)O[C@@H]1C	20	75	–
CC[C@H](C)C[C@H]1CC[C@](O)([C@](C)(O)C(=O)N[C@@H]2C(=O)N3NCCC[C@@H]3C(=O)N(O)[C@@H](C)C(=O)NCC(=O)N3NCCC[C@H]3C(=O)N(O)[C@H](C)C(=O)O[C@H]2C(C)C)O[C@@H]1C	0.27	–	IC50 [3]: 5.95 µM; Activity [4]: 1.8 µg/mL; EC50 (Homo sapiens): 0.28 µg/mL (≈ 0.333 µM); IC50 [5]: 5.95 µM; IC50 [6]: 2.02 µM
CC[C@H](C)C[C@H]1CC[C@](O)([C@](C)(O)C(=O)N[C@@H]2C(=O)N3NCCC[C@@H]3C(=O)N(O)[C@@H](C)C(=O)N[C@H](C)C(=O)N3NCCC[C@H]3C(=O)N(O)[C@H](C)C(=O)O[C@H]2C(C)C)O[C@@H]1C	> 100	> 100	–
CC[C@H](C)C[C@H]1CC[C@](O)([C@](C)(O)C(=O)N[C@@H]2C(=O)N[C@H](CCCNC(C)=O)C(=O)N(O)[C@@H](C)C(=O)NCC(=O)N3NCCC[C@H]3C(=O)N(O)[C@H](C)C(=O)O[C@H]2C(C)C)O[C@@H]1C	> 50	> 100	–
CC[C@H](C)C[C@H]1CC[C@](O)([C@](C)(O)C(=O)N[C@@H]2C(=O)N3NCCC[C@@H]3C(=O)N(OCc3ccccc3)[C@@H](C)C(=O)NCC(=O)N3NCCC[C@H]3C(=O)N[C@H](C)C(=O)O[C@H]2C(C)C)O[C@@H]1C	18	> 100	–
CC[C@H](C)C[C@H]1CC[C@](O)([C@](C)(O)C(=O)N[C@@H]2C(=O)N3NCCC[C@@H]3C(=O)N(OC)[C@@H](C)C(=O)NCC(=O)N3NCCC[C@H]3C(=O)N(C)[C@H](C)C(=O)O[C@H]2C(C)C)O[C@@H]1C	20	7	–
CC[C@H](C)C[C@H]1CC[C@](O)([C@](C)(O)C(=O)N[C@@H]2C(=O)N3NCCC[C@@H]3C(=O)N[C@@H](C)C(=O)NCC(=O)N3NCCC[C@H]3C(=O)N(O)[C@H](C)C(=O)O[C@H]2C(C)C)O[C@@H]1C	–	> 100	–
CC[C@H](C)C[C@H]1CC[C@](O)([C@](C)(O)C(=O)N[C@@H]2C(=O)N3NCCC[C@@H]3C(=O)N(O)[C@@H](C)C(=O)NCC(=O)N3NCCC[C@H]3C(=O)N(C)[C@H](C)C(=O)O[C@H]2C(C)C)O[C@@H]1C	4	5	–
CC(=O)C(=O)N[C@@H]1C(=O)N2NCCC[C@@H]2C(=O)N(O)[C@@H](C)C(=O)NCC(=O)N2NCCC[C@H]2C(=O)N(O)[C@H](C)C(=O)O[C@H]1C(C)C	> 13	> 100	–
CC[C@H](C)C[C@H]1CC[C@](O)([C@](C)(O)C(=O)N[C@@H]2C(=O)N3[C@H](CCCN3C)C(=O)N(O)[C@@H](C)C(=O)NCC(=O)N3[C@@H](CCCN3C)C(=O)N(O)[C@H](C)C(=O)O[C@H]2C(C)C)O[C@@H]1C	10	11	–
CC[C@H](C)C[C@H]1CC[C@](O)([C@](C)(O)C(=O)N[C@@H]2C(=O)N[C@H](CCCN)C(=O)N(O)[C@@H](C)C(=O)NCC(=O)N3NCCC[C@H]3C(=O)N(O)[C@H](C)C(=O)O[C@H]2C(C)C)O[C@@H]1C	> 200	60	–
CCC(C)C[C@H]1CC[C@](O)([C@](C)(O)C(=O)N[C@@H]2C(=O)N3NCCC[C@@H]3C(=O)N(O)[C@@H](C)C(=O)NCC(=O)N3NCCC[C@H]3C(=O)N[C@H](C)C(=O)OC2C)O[C@@H]1C (single isomer, unassigned)	1	2	–
CC[C@H](C)C[C@H]1CC[C@](O)([C@](C)(O)C(=O)N[C@@H]2C(=O)N3NCCC[C@@H]3C(=O)N(O)[C@@H](C)C(=O)NCC(=O)N3NCCC[C@H]3C(=O)N[C@H](C)C(=O)O[C@H]2C(C)C)O[C@@H]1C	7	21	–
CC(C)[C@@H]1OC(=O)[C@@H](C)N(O)C(=O)[C@@H]2CCCNN2C(=O)CNC(=O)[C@H](C)N(O)C(=O)[C@H]2CCCNN2C(=O)[C@H]1NC(=O)[C@@](C)(O)CCCc1ccccc1	9	> 100	–
CC[C@H](C)C[C@H]1CC[C@](O)([C@](C)(O)C(=O)N[C@@H]2C(=O)N3NCCC[C@@H]3C(=O)N(O)[C@@H](C)C(=O)N[C@@H](C)C(=O)N3NCCC[C@H]3C(=O)N(O)[C@H](C)C(=O)O[C@H]2C(C)C)O[C@@H]1C	–	60	–
CC[C@H](C)C[C@H]1CC[C@](O)([C@](C)(O)C(=O)N[C@@H]2C(=O)N3NCCC[C@@H]3C(=O)N(C(C)=O)[C@@H](C)C(=O)NCC(=O)N3NCCC[C@H]3C(=O)N(O)[C@H](C)C(=O)O[C@H]2C(C)C)O[C@@H]1C	0.3	4	–
CCC(C)C[C@H]1CC[C@](O)([C@](C)(O)C(=O)N[C@@H]2C(=O)N3NCCC[C@@H]3C(=O)N[C@@H](C)C(=O)NCC(=O)N3NCCC[C@H]3C(=O)N[C@H](C)C(=O)O[C@H]2C(C)C)O[C@@H]1C (single isomer, unassigned)	> 50	40	–
CC[C@H](C)C[C@H]1CC[C@](O)([C@](C)(O)C(=O)N[C@@H]2C(=O)N3NCCC[C@@H]3C(=O)N(CC(=O)OC(C)(C)C)[C@@H](C)C(=O)NCC(=O)N3NCCC[C@H]3C(=O)N(O)[C@H](C)C(=O)O[C@H]2C(C)C)O[C@@H]1C	> 50	100	–
